This is an account of results in patent publication US8933075B2, “Compounds useful as antiviral agents, compositions, and methods of use” (priority 2010, dated 2015).

This experiment deals with A/Udorn/72 (H3N2) virus. Briefly: Plaque assay in MDCK cells: EC50 by reduction of plaque number. In kind it is cell-based, influenza virus. The following applies: MDCK.

In general, EC50 refers to the concentration giving half of the maximal effect. A high value points to weaker potency.

In turn, `COc1cc(-c2ccc(/C=C3\SC(=S)N(C4C5CC6CC(C5)CC4C6)C3=O)o2)cc(OC)c1OC` (stereo not drawn) [Compound 1] showed an EC50 below 100 nM.

For `COc1cc(-c2ccc(/C=C3\SC(=S)N(C4CC5CCC4C5)C3=O)o2)cc(OC)c1OC` (stereo not drawn) [Compound 2], the EC50 is below 100 nM.

For `O=C(O)c1ccc(-c2ccc(/C=C3\SC(=S)N(C4C5CC6CC(C5)CC4C6)C3=O)o2)cc1` (stereo not drawn) [Compound 3], the EC50 was below 100 nM.

`O=C(O)c1ccc(-c2ccc(/C=C3\SC(=S)N(C4CC5CCC4C5)C3=O)o2)cc1` (stereo not drawn) [Compound 4] gave an EC50 below 100 nM.

In turn, `O=C1/C(=C/c2ccc(-c3cc(O)cc(O)c3)o2)SC(=S)N1C1C2CC3CC(C2)CC1C3` (stereo not drawn) [Compound 5] showed an EC50 below 100 nM.

`COc1cc(-c2ccc(/C=C3\SC(=S)N(C4C5CC6CC(C5)CC4C6)C3=O)o2)cc(OC)c1O` (stereo not drawn) [Compound 7] came in with an EC50 below 100 nM.

Compound `COc1ccc(-c2ccc(/C=C3\SC(=S)N(C4CC5CCC4C5)C3=O)o2)cc1` (stereo not drawn) [Compound 8] returned a 50% effective concentration (EC50) below 100 nM.

In turn, `COc1ccc(-c2ccc(/C=C3\SC(=S)N(C4C5CC6CC(C5)CC4C6)C3=O)o2)cc1` (stereo not drawn) [Compound 9] showed an EC50 below 100 nM.

As for `COc1ccc(-c2ccc(/C=C3\SC(=S)N(C4CC5CCC4C5)C3=O)o2)cc1O` (stereo not drawn) [Compound 10], the EC50 is below 100 nM.

Regarding `Nc1ccc(-c2ccc(/C=C3\SC(=S)N(C4CC5CCC4C5)C3=O)o2)cc1` (stereo not drawn) [Compound 11], the EC50 was below 100 nM.

On to `Nc1ccc(-c2ccc(/C=C3\SC(=S)N(C4C5CC6CC(C5)CC4C6)C3=O)o2)cc1` (stereo not drawn) [Compound 12], for which the EC50 was below 100 nM.

Regarding `COC(=O)c1cc(-c2ccc(/C=C3\SC(=S)N(C4C5CC6CC(C5)CC4C6)C3=O)o2)ccc1OC` (stereo not drawn) [Compound 13], the half-maximal effective concentration (EC50) is below 100 nM.

In turn, `COC(=O)c1cc(-c2ccc(/C=C3\SC(=S)N(C4CC5CCC4C5)C3=O)o2)ccc1OC` (stereo not drawn) [Compound 14] had an EC50 below 100 nM.

The compound `O=C1/C(=C/c2ccc(-c3ccc(O)cc3)o2)SC(=S)N1C1C2CC3CC(C2)CC1C3` (stereo not drawn) [Compound 15] returned an EC50 below 100 nM.

In turn, `COc1cc(O)cc(-c2ccc(/C=C3\SC(=S)N(C4C5CC6CC(C5)CC4C6)C3=O)o2)c1` (stereo not drawn) [Compound 18] had an EC50 below 100 nM.

As to `COc1cc(-c2ccc(/C=C3\SC(=S)N(C4CC5CCC4C5)C3=O)o2)ccc1O` (stereo not drawn) [Compound 24], the EC50 is below 100 nM.

For the compound `COCOc1cc(-c2ccc(/C=C3\SC(=S)N(C4C5CC6CC(C5)CC4C6)C3=O)o2)cc(OC)c1OC` (stereo not drawn) [Compound 25], the EC50 is below 100 nM.

The compound `COCOc1cc(-c2ccc(/C=C3\SC(=S)N(C4CC5CCC4C5)C3=O)o2)cc(OC)c1OCOC` (stereo not drawn) [Compound 26] displayed an EC50 below 100 nM.

In turn, `COCOc1cc(-c2ccc(/C=C3\SC(=S)N(C4CC5CCC4C5)C3=O)o2)cc(OC)c1OC` (stereo not drawn) [Compound 27] registered an EC50 below 100 nM.

`COc1ccc(-c2ccc(/C=C3\SC(=S)N(C4C5CC6CC(C5)CC4C6)C3=O)o2)cc1C(=O)O` (stereo not drawn) [Compound 34] displayed an EC50 below 100 nM.

`COc1ccc(-c2ccc(/C=C3\SC(=S)N(C4CC5CCC4C5)C3=O)o2)cc1OCC(=O)O` (stereo not drawn) [Compound 35] yielded an EC50 below 100 nM.

Consider `COc1ccc(-c2ccc(/C=C3\SC(=S)N(C4CC5CCC4C5)C3=O)o2)cc1C(=O)O` (stereo not drawn) [Compound 36], for which the EC50 was below 100 nM.

Take `COc1cc(OCC(=O)O)cc(-c2ccc(/C=C3\SC(=S)N(C4C5CC6CC(C5)CC4C6)C3=O)o2)c1` (stereo not drawn) [Compound 38]: the EC50 is below 100 nM.

In turn, `COc1cc(OCC(=O)OC(C)(C)C)cc(-c2ccc(/C=C3\SC(=S)N(C4CC5CCC4C5)C3=O)o2)c1` (stereo not drawn) [Compound 39] came in with a 50% effective concentration (EC50) below 100 nM.

With `O=C1/C(=C/c2ccc(-c3ccc(Cl)cc3)o2)SC(=S)N1C1C2CC3CC(C2)CC1C3` (stereo not drawn) [Compound 43], the EC50 is below 100 nM.

For the compound `CCOC(=O)c1c(F)ccc(-c2ccc(/C=C3\SC(=S)N(C4CCCC4)C3=O)o2)c1F` [Compound 45], the EC50 was below 100 nM.

Compound `CCOC(=O)c1c(F)ccc(-c2ccc(/C=C3\SC(=S)N(C4CCCCCCC4)C3=O)o2)c1F` [Compound 46] displayed an EC50 below 100 nM.

In turn, `O=C1/C(=C/c2ccc(-c3ccc(Cl)cc3)o2)SC(=S)N1C1CCCCC1` [Compound 47] had an EC50 below 100 nM.

The compound `O=C1/C(=C/c2ccc(-c3ccc(Cl)cc3)o2)SC(=S)N1C1CCCC1` [Compound 48] came in with a half-maximal effective concentration (EC50) below 100 nM.

In the case of `COc1cc(C)c(-c2ccc(/C=C3\SC(=S)N(C4CCCCCCC4)C3=O)o2)cc1C` [Compound 49], the EC50 was below 100 nM.

In the case of `CCOc1ccc(F)c(F)c1-c1ccc(/C=C2\SC(=S)N(C3CCCC3)C2=O)o1` [Compound 50], the EC50 is below 100 nM.

As to `COc1cc(C)c(-c2ccc(/C=C3\SC(=S)N(C4CCCC4)C3=O)o2)cc1C` [Compound 51], the EC50 is below 100 nM.

Compound `COc1ccc(-c2ccc(/C=C3\SC(=S)N(C4CCCCC4)C3=O)o2)c(F)c1F` [Compound 52] returned an EC50 below 100 nM.

`COc1cc(OC)cc(-c2ccc(/C=C3\SC(=S)N(C4CC5CCC4C5)C3=O)[nH]2)c1` (stereo not drawn) [Compound 58] registered an EC50 below 100 nM.

In turn, `COc1cc(OC)cc(-c2ccc(/C=C3\SC(=S)N(C4C5CC6CC(C5)CC4C6)C3=O)[nH]2)c1` (stereo not drawn) [Compound 59] yielded an EC50 below 100 nM.

For `O=C1/C(=C/c2cn(-c3ccc([N+](=O)[O-])cc3)cn2)SC(=S)N1C1CCCCCCC1` [Compound 62], the EC50 lay in the range of 250 to 1000 nM.

`O=C1/C(=C/c2cn(-c3ccc([N+](=O)[O-])cc3)cn2)SC(=S)N1C1CCCCCC1` [Compound 63]: the 50% effective concentration (EC50) is 250 to 1000 nM.

`O=C1/C(=C/c2cn(-c3ccc([N+](=O)[O-])cc3)cn2)SC(=S)N1C1CCCCCCCCCCC1` [Compound 64] showed an EC50 below 100 nM.

For the compound `O=C1/C(=C/c2ncc(-c3ccccc3)o2)SC(=S)N1C1CCCCCC1` [Compound 65], the concentration for a half-maximal effect (EC50) was below 100 nM.

Regarding `O=C1/C(=C/c2ncc(-c3ccccc3)o2)SC(=S)N1C1CCCCCCC1` [Compound 66], the EC50 is below 100 nM.

Consider `COc1ccc2oc(=O)c(-c3ccc(/C=C4\SC(=S)N(C5CC6CCC5C6)C4=O)o3)c(O)c2c1` (stereo not drawn) [Compound 69], for which the EC50 was in the range of 100 to 250 nM.

On to `COc1ccc2oc(=O)c(-c3ccc(/C=C4\SC(=S)N(C5C6CC7CC(C6)CC5C7)C4=O)o3)c(O)c2c1` (stereo not drawn) [Compound 70], for which the EC50 is 100 to 250 nM.

In turn, `COc1ccc2c(O)c(-c3ccc(/C=C4\SC(=S)N(C5CC6CCC5C6)C4=O)o3)c(=O)oc2c1OC` (stereo not drawn) [Compound 71] came in with an EC50 of 100 to 250 nM.

Take `COc1ccc2c(O)c(-c3ccc(/C=C4\SC(=S)N(C5C6CC7CC(C6)CC5C7)C4=O)o3)c(=O)oc2c1OC` (stereo not drawn) [Compound 72]: the EC50 was in the range of 100 to 250 nM.

Turning to `COc1ccc2c(O)c(-c3ccc(/C=C4\SC(=S)N(C5CC6CCC5C6)C4=O)o3)c(=O)oc2c1` (stereo not drawn) [Compound 73], the EC50 lay within 100 to 250 nM.

`COc1ccc2c(O)c(-c3ccc(/C=C4\SC(=S)N(C5C6CC7CC(C6)CC5C7)C4=O)o3)c(=O)oc2c1` (stereo not drawn) [Compound 74] gave an EC50 of 100 to 250 nM.

Turning to `COCOc1cc(=O)oc2ccc(-c3ccc(/C=C4\SC(=S)N(C5C6CC7CC(C6)CC5C7)C4=O)o3)cc12` (stereo not drawn) [Compound 75], the EC50 was 250 to 1000 nM.

`COCOc1cc(=O)oc2ccc(-c3ccc(/C=C4\SC(=S)N(C5CC6CCC5C6)C4=O)o3)cc12` (stereo not drawn) [Compound 76] registered an EC50 of 250 to 1000 nM.

`COc1ccc(-c2ccc(/C=C3\SC(=S)N(C4CC5CCC4C5)C3=O)o2)cc1OCC(=O)N[C@@H](Cc1ccc(O)cc1)C(=O)O` (stereo partly drawn) [Compound 77]: the EC50 is 100 to 250 nM.

For `COc1ccc(-c2ccc(/C=C3\SC(=S)N(C4CC5CCC4C5)C3=O)o2)cc1OCC(=O)N[C@@H](CC(C)C)C(=O)O` (stereo partly drawn) [Compound 78], the EC50 is below 100 nM.

Turning to `COc1ccc(-c2ccc(/C=C3\SC(=S)N(C4CC5CCC4C5)C3=O)o2)cc1OCC(=O)N[C@@H](Cc1ccccc1)C(=O)O` (stereo partly drawn) [Compound 79], the EC50 is below 100 nM.

Consider `COc1ccc(-c2ccc(/C=C3\SC(=S)N(C4CC5CCC4C5)C3=O)o2)cc1OCC(=O)N1CCC[C@H]1C(=O)O` (stereo partly drawn) [Compound 80], for which the EC50 was below 100 nM.

Compound `COc1ccc(-c2ccc(/C=C3\SC(=S)N(C4CC5CCC4C5)C3=O)o2)cc1OCC(=O)N[C@@H](CCC(=O)OCc1ccccc1)C(=O)O` (stereo partly drawn) [Compound 81] gave a concentration giving a half-maximal response (EC50) below 100 nM.

`COc1ccc(-c2ccc(/C=C3\SC(=S)N(C4CC5CCC4C5)C3=O)o2)cc1OCC(=O)N[C@@H](Cc1cnc[nH]1)C(=O)O` (stereo partly drawn) [Compound 82]: the EC50 is below 100 nM.

The compound `COc1ccc(-c2ccc(/C=C3\SC(=S)N(C4CC5CCC4C5)C3=O)o2)cc1C(=O)N[C@@H](Cc1ccccc1)C(=O)O` (stereo partly drawn) [Compound 85] gave an EC50 below 100 nM.

`COc1ccc(-c2ccc(/C=C3\SC(=S)N(C4CC5CCC4C5)C3=O)o2)cc1C(=O)N[C@@H](CC(C)C)C(=O)O` (stereo partly drawn) [Compound 87] gave an EC50 below 100 nM.

As for `COc1ccc(-c2ccc(/C=C3\SC(=S)N(C4CC5CCC4C5)C3=O)o2)cc1C(=O)N[C@@H](Cc1cnc[nH]1)C(=O)O` (stereo partly drawn) [Compound 88], the EC50 was below 100 nM.

In turn, `COc1ccc(-c2ccc(/C=C3\SC(=S)N(C4CC5CCC4C5)C3=O)o2)cc1C(=O)N1CCC[C@H]1C(=O)O` (stereo partly drawn) [Compound 89] came in with a 50% effective concentration (EC50) below 100 nM.

Consider `COC(=O)C[C@H](NC(=O)c1cc(-c2ccc(/C=C3\SC(=S)N(C4CC5CCC4C5)C3=O)o2)ccc1OC)C(=O)O` (stereo partly drawn) [Compound 90], for which the concentration for a half-maximal effect (EC50) was 100 to 250 nM.

On to `CCOC(=O)[C@@H]1CCCCN1C(=O)c1cc(-c2ccc(/C=C3\SC(=S)N(C4CC5CCC4C5)C3=O)o2)ccc1OC` (stereo partly drawn) [Compound 91], for which the EC50 is below 100 nM.

Turning to `O=C1/C(=C/c2oc(-c3ccccc3)cc2CO)SC(=S)N1C1CC2CCC1C2` (stereo not drawn) [Compound 93], the EC50 is below 100 nM.

Take `COc1cc(OC)cc(-c2cc(CCCO)c(/C=C3\SC(=S)N(C4CC5CCC4C5)C3=O)o2)c1` (stereo not drawn) [Compound 96]: the EC50 is below 100 nM.

`COc1cc(OC)cc(-c2cc(CCCOC(C)=O)c(/C=C3\SC(=S)N(C4CC5CCC4C5)C3=O)o2)c1` (stereo not drawn) [Compound 97]: the EC50 is below 100 nM.

`COc1cc(OC)cc(-c2cc(CCCOC(C)=O)c(/C=C3\SC(=S)N(C4C5CC6CC(C5)CC4C6)C3=O)o2)c1` (stereo not drawn) [Compound 98]: the EC50 was below 100 nM.

The compound `O=C1/C(=C/c2oc(-c3ccc(Cl)cc3)cc2CCCO)SC(=S)N1C1C2CC3CC(C2)CC1C3` (stereo not drawn) [Compound 100] showed an EC50 below 100 nM.

As for `O=C1/C(=C/c2oc(-c3ccc(F)cc3)cc2CCCCCO)SC(=S)N1C1CC2CCC1C2` (stereo not drawn) [Compound 105], the half-maximal effective concentration (EC50) is below 100 nM.
